“Also recorded” adds a separate entry of the source.
What was measured:
[1] = tested on: amyloid precursor protein APP 5′UTR luciferase reporter; assay: 5′UTR firefly luciferase reporter assay, APP; type: cell-based, human
Procedure: SH-SY5Y cells were simultaneously co-transfected with APP-5′UTR firefly luciferase construct and a Renilla control vector. Luciferase levels were assayed using a Glomax Luminometer and Stop-n-Glo luciferase reagents (standard procedure throughout). The data presented represents 8 biological repetitions and use as the active a semi refined compound of Formula II. Levels of compound were estimated based on amounts of purified compound obtained from fresh tomato tissue.
The 5′UTRs of genes which negatively associate with the progression of Alzheimer's disease—amyloid precursor protein (APP) and beta secretases (BACE) are all inhibited by treatment with a compound of Formula II, whereas the equivalent reporter levels of housekeeping genes actin and thioredoxin (TXN) are not inhibited. […] Neuroblastoma cells were transfected 24 hours prior to treatment with a compound of Formula II. After treatment, cells were prepared as described in the materials and methods. Each experiment represents between 6 and 8 biological repetitions. […]
(§1) Cells were transfected using FuGene 6 (Roche) following the manufacturer's instructions. The activities of firefly and renilla luciferase in lysates prepared from transfected cells were measured using a commercially available Luciferase reporter assay system (Promega) and light emission was measured over a 10 sec interval using a TECAN luminometer. […]

actin 5′UTR = assay: 5′UTR firefly luciferase reporter assay, actin; type: cell-based, human; conditions: Neuroblastoma cells; FIG. 3d
Procedure: (§2) The 5′UTRs of genes which negatively associate with the progression of Alzheimer's disease—amyloid precursor protein (APP) and beta secretases (BACE) are all inhibited by treatment with a compound of Formula II, whereas the equivalent reporter levels of housekeeping genes actin and thioredoxin (TXN) are not inhibited. […] Neuroblastoma cells were transfected 24 hours prior to treatment with a compound of Formula II. After treatment, cells were prepared as described in the materials and methods. Each experiment represents between 6 and 8 biological repetitions.
Experiments conducted using Firefly luciferase reporter plasmids containing the 5′ untranslated regions (UTRs) of the genes amyloid precursor protein (APP), thioredoxin (TXN) were conducted with reagents and materials described by Bottley et al, 2010. Experiments conducted using Firefly luciferase reporter plasmids containing the 5′ UTRs of the genes EGFR, BACE1 and Actin were conducted with reagents and materials described by Webb, 2012 (http://etheses.nottingham.ac.uk/2724/). […]
as §1

[2] = tested on: epidermal growth factor receptor (EGFR) 5′UTR; assay: 5′UTR firefly luciferase reporter assay, EGFR; type: cell-based, human; conditions: Neuroblastoma cells; FIG. 3d
Procedure: as §2
After treatment with the compound of Formula II the levels of translation of a reporter construct containing the 5′UTR of amyloid precursor protein, which is processed into toxic amyloid the major constituent of amyloid plaques in Alzheimer's disease, is inhibited relative to equivalent control treatments. […]
as §1

[3] = tested on: breast cancer cells MDA-MB-231; assay: Cell proliferation, MDA-MB-231; type: cell-based; conditions: 96 hours, Formula II only
Procedure: Growth of MDA-MB-231 cell lines were slowed by the treatment with a compound of Formula II. Experiment represents 6 biological repetitions, Error=S.E.M.
Prior to treatment cells were cultured to an appropriate confluency in 96 well tissue culture plates (Fisher). Cells remained either supplemented with fresh media or treated with fresh media containing active or an equivalent volume of DMSO (vehicle control). Where used, Cisplatin™ was diluted to a stock concentration in Dimethylformamide (DMF), then handled as per the manufacturer's instructions. To determine relative cell viability, reagents WST-1 (Roche) or MTT (Sigma) were used as per the manufacturer's instructions and absorbance at 450 nm measured using a Victor plate reader (Perkin Elmer).

SMILES: CC/C=C\C/C=C\C/C=C\CCCCCCCC(=O)OC[C@H](COC1OC(CO)C(O)C(O)C1O)OC(=O)CCCCCCC/C=C\C/C=C\C/C=C\CC (stereo partly drawn) [Formula II, 1,2-dioctadecatienyl-3-O-β-D-galactosyl-sn-glycerol]
- firefly luciferase reporter activity, APP 5′UTR ([1]; Neuroblastoma cells transfected 24 hours prior, FIG. 3d): inhibited
- APP 5′UTR luciferase reporter relative to Renilla luciferase reporter ([1]; SH-SY5Y cells, semi refined compound, FIG. 3a): selective inhibition
- firefly luciferase reporter levels, actin 5′UTR (actin 5′UTR): not inhibited
- firefly luciferase reporter activity, EGFR 5′UTR [2]: selectively inhibited; also recorded: significant inhibition (p=0.005)
- growth of MDA-MB-231 cells [3]: slowed
